These results are taken from patent publication EP4733297A1, “INTEGRIN-INHIBITING SMALL MOLECULE COMPOUND” (Antibody Therapeutics, Inc., priority 2023, dated 2024).

Test [1] has as its system rat lung-derived fibroblasts. The experiment in a line: Differentiation of fibroblasts into myofibroblasts, α-SMA western blotting. In kind it is cell-based. Particulars: TGFβ stimulation 96 hours. The protocol:
In this Example, the effect of IBF-17, which is a compound of the present invention, on differentiation of fibroblasts into myofibroblasts was examined. The medium was replaced with a serum-free medium, and rat lung-derived fibroblasts isolated in Example 2 were cultured for 24 hours. After culturing, IBF-17 was added so as to give final concentrations of 2, 20 nM, or 200 nM, and C8 was added so as to give final concentrations of 2, 20, or 200 nM, followed by reaction for 2 hours. After the reaction, recombinant human TGFβ1 was added so as to give a final concentration of 5 ng/mL, and stimulation was carried out for 96 hours to induce differentiation into myofibroblasts. After induction of differentiation, protein was extracted from the cells and western blotting was performed, a band of α-SMA, which is a differentiation marker, was detected, and the band was quantified as a relative band intensity with respect to glyceraldehyde-3-phosphate dehydrogenase (GAPDH), which is a control.
From this Example, differentiation of fibroblasts into myofibroblasts (by […] TGFβ) was evaluated using α-smooth muscle actin as marker.
(In general: Immunoblotting shows a protein as a band on a membrane.)

Test [2] concerns unilateral ureteral obstruction (UUO) model. Kind of test: 10-day administration experiment in unilateral ureteral obstruction (UUO) model. In kind it is in vivo, mice. Conditions: kidney, 10 days after ligation; subcutaneous 1 or 5 mg/kg twice per day for 9 days. The protocol:
In this Example, over a period of 10 days, the compound of the present invention (IBF-17) was administered to mice in which the ureter on one side was ligated, and the state of tissue fibrosis was observed. More specifically, mice under deep anesthesia were laparotomized, and two sites of the left ureter were ligated using a nylon thread, and the abdomen was sutured. From 1 day after ligation, IBF-17 was subcutaneously administered daily at 1 or 5 mg/kg twice per day (with an interval of 8 hours) for 9 days. At 10 days after ligation, the kidney was collected and expression of genes regarded as fibrosis markers (Acta2, Col1a1, Col3a1, Ddr2, Tgfb1, Tnc, Trpc6, and Loxl1) was analyzed by qPCR.

The subject of test [3] is carbon tetrachloride (CCl4) administration model. The experiment in a line: 15-day administration experiment in carbon tetrachloride (CCl4) administration model (therapeutic). In kind it is in vivo, mice. Particulars: oral 5 mg/kg twice per day, 5 days per week, from week 4 of 6 weeks of CCl4. On the procedure:
In this Example, over a period of 6 weeks, carbon tetrachloride (CCl4) for inducing fibrosis in the liver was administered to mice, and the compound of the present invention (IBF-17) was administered for a total of 15 days over 3 weeks in the latter half of the test, and the state of tissue fibrosis was observed. While Example 4 is examination of a prophylactic effect in which the compound is administered from the start of the test, this Example is examination of a therapeutic effect in which the compound is administered after 3 weeks have passed since administration of carbon tetrachloride (in a state where liver fibrosis has occurred). Specifically, to mice, carbon tetrachloride (diluted 4-fold with olive oil) was intraperitoneally administered at 1 mL/kg twice per week (for example, Monday and Friday, or Tuesday and Friday) for a total of 6 weeks. From week 4 of the start of the test, IBF-17 was orally administered at 5 mg/kg twice per day (with an interval of 8 hours) for 5 days per week (Monday to Friday). After completion of the experiment, the liver was collected and the amount of collagen was quantified by hydroxyproline measurement.

The test system is the same in test [4]. The experiment in a line: 3-day administration experiment in carbon tetrachloride (CCl4) administration model. The class given is in vivo, mice. Conditions: liver, 72 hours after CCl4; subcutaneous 1 mg/kg twice per day. The protocol:
In this Example, carbon tetrachloride (CCl4) for inducing fibrosis in the liver was administered once to mice, and thereafter, the compound of the present invention (IBF-17) was administered for 3 days, and then the liver was collected and observed. More specifically, carbon tetrachloride (diluted 4-fold with olive oil) was intraperitoneally administered once at 2 mL/kg to mice that had been fasted for half a day from the day before the test. IBF-17 was subcutaneously administered daily at 1 mg/kg twice per day (with an interval of 8 hours), including the day of carbon tetrachloride administration. At 72 hours after carbon tetrachloride administration, the mice were dissected and the liver was collected, and expression of fibrosis marker genes (Acta2, Col1a1, Col3a1, Tgfb1, Loxl1, and Ddr2) was analyzed by qPCR.

The test system of test [5] is bleomycin administration model. The experiment in a line: 10-day administration experiment in bleomycin administration model. The class given is in vivo, mice. Particulars: oral 5 mg/kg twice per day, 5 days per week, from 1 week after bleomycin. On the procedure:
In this Example, to mice administered with bleomycin for inducing fibrosis in the lung, the compound of the present invention (IBF-17) was administered for a total of 10 days over a period of 2 weeks from 1 week after bleomycin administration, and the state of tissue fibrosis was observed.
Specifically, under deep anesthesia, the neck of mice was incised, bleomycin (diluted with physiological saline) was intratracheally administered once at 1.5 U/kg, and the neck was sutured. From 1 week after bleomycin administration (the time when fibrosis begins to occur), IBF-17 was orally administered at 5 mg/kg twice per day (with an interval of 8 hours) for 5 days per week (Monday to Friday). After completion of the experiment, the lung was collected and expression of fibrosis-related genes (Acta2, Col1a1, Col3a1, and Tnc) was analyzed by qPCR. Further, lung sections were prepared, collagen was stained by Masson-trichrome staining, and the fibrotic area was quantified.

Another test deals with NASH model. The experiment in a line: 8-week administration experiment in NASH model (CDAHFD diet). The class given is in vivo, mice. Particulars: oral, 8 weeks. On the procedure: In this Example, over a period of 8 weeks, while providing mice with CDAHFD (choline-deficient amino acid-restricted high-fat diet), compounds of the present invention (IBF-17, IBF-18, and IBF-20) were administered, and the state of tissue fibrosis was observed. More specifically, mice were fed with a special diet CDAHFD (Research Diets) for inducing a human NASH-like pathological condition for a total of 8 weeks, replacing with new diet twice per week (for example, Monday and Friday, or Tuesday and Friday). Throughout the entire test period, IBF-17, IBF-18, or IBF-20 was orally administered daily at 1, 3, or 10 mg/kg twice per day (with an interval of 8 hours). After completion of the experiment, the amount of collagen in the liver was quantified by hydroxyproline measurement, and, for IBF-17, in addition to staining specimens with Sirius red, which specifically stains collagen, to quantify the fibrotic area, expression of genes regarded as fibrosis markers (Acta2, Col1a1, and Timp-1) was analyzed by qPCR. In addition, body weight of each mouse during the feeding period (CDAHFD temporarily decreases at the initial stage of feeding) was measured, and the weight of the collected liver was measured.

For test [6], the system named is TGFβ activation by integrin expressed in lung fibroblasts. The experiment in a line: Effect on TGFβ activation: luciferase reporter coculture of lung fibroblasts and CCL64 reporter cells. In kind it is cell-based, male Wistar rats. The protocol:
In this Example, lung fibroblasts were used as integrin-expressing cells, and the effect of IBF-17, which is a compound of the present invention, on TGFβ activity was examined. Fibroblasts isolated from lungs of male Wistar rats and cultured for 7 days were seeded at 2×10^3 cells per well and incubated for 5 days. After 5 days, IBF-17 or C8 (a known αvβ1 inhibitor) was added so as to give final concentrations of 2, 20, or 200 nM, and 2 hours thereafter, TGFβ-responsive luciferase-producing reporter cells CCL64 were seeded at 2×10^4 cells and cocultured for 18 hours. After that, the cells were lysed, luciferase assay reagent (Promega Corporation) was added, and luciferase activity was measured using a luminometer. The structure of C8, which is a known αvβ1 inhibitor, is as follows. [drawing 43]
For orientation: Reporter assays use an easily measured gene product as a stand-in for the process of interest.

For test [7], the system named is carbon tetrachloride (CCl4) administration model. Kind of test: 8-week administration experiment in carbon tetrachloride (CCl4) administration model. The class given is in vivo, mice. Conditions: oral, 8 weeks. The protocol:
In this Example, over a period of 8 weeks, carbon tetrachloride (CCl4) for inducing fibrosis in the liver and compounds of the present invention (IBF-17, IBF-18, and IBF-20) were administered to mice, and the state of tissue fibrosis was observed.
To mice, carbon tetrachloride (diluted 4-fold with olive oil) was intraperitoneally administered at 1 mL/kg twice per week (for example, Monday and Friday, or Tuesday and Friday) for a total of 8 weeks. Throughout the entire test period, IBF-17, IBF-18, or IBF-20 was orally administered daily at 1 or 10 mg/kg twice per day (with an interval of 8 hours). After completion of the experiment, the liver was collected, and the amount of collagen was quantified by hydroxyproline measurement, and a specimen was stained with Sirius red to quantify the fibrotic area. In addition, expression of fibrosis markers, Col1a1 and Acta2 (α-SMA) genes, was analyzed by qPCR.

Another test relates to interstitial pneumonia. Particulars: reported July 2022; cited from earlier work.
[8] abbreviates: liver, 1 or 10 mg/kg twice per day.

The structures appear in SMILES notation. Bounds are passed on as bounds.

Take `O=C(O)C[C@H](NC(=O)CNC(=O)c1cc(O)cc(NC2=NCC(F)CN2)c1)c1cccc(S(F)(F)(F)(F)F)c1` (stereo partly drawn) [IBF-17, (3S)-3-(2-{3-[(5-fluoro-1,4,5,6-tetrahydropyrimidin-2-yl)amino]-5-hydroxybenzamido}acetamido)-3-[3-(pentafluorosulfanyl)phenyl]propanoic acid]: the “inhibition of differentiation of fibroblasts into myofibroblasts (α-SMA band intensity)” value in test [1] (2 nM) is given as “inhibition of differentiation was observed”. Moreover, in [1] (Rattus norvegicus, Fibroblast, 20 nM, read-out: inhibition of differentiation of fibroblasts into myofibroblasts (α-SMA band intensity)), the inhibition (in general, the change of the read-out against control, counted positive when it falls) at 0.02 µM is not below 80%. In [2], the “mRNA expression of Acta2 (qPCR)” value is reported as “decreasing tendency”, the “mRNA expression of Col1a1 (qPCR)” value is “significant decreases”, the “mRNA expression of Col3a1 (qPCR)” value is “significant decreases” and the “mRNA expression of Ddr2 (qPCR)” value is listed as “significant decreases”. Besides, in [2], the “mRNA expression of Loxl1 (qPCR)” value is “significant decreases”, the “mRNA expression of Tgfb1 (qPCR)” value is on record as “decreasing tendency”, the “mRNA expression of Tnc (qPCR)” value was “decreasing tendency” and the “mRNA expression of Trpc6 (qPCR)” value is reported as “decreasing tendency”. In addition, the “amount of hydroxyproline in mouse liver” value in test [3] was “significantly decreased”. For the same molecule, in test [4], the “mRNA expression of Col1a1 (qPCR)” value is recorded as “clearly decreased”; the “mRNA expression of Col3a1 (qPCR)” value is recorded as “clearly decreased”; the “mRNA expression of six fibrosis markers (Acta2, Col1a1, Col3a1, Tgfb1, Loxl1, Ddr2) (qPCR)” value was “all of these markers were decreased”. In addition, in test [5] (lung), the “mRNA expression of Col1a1 (qPCR)” value was “significantly decreased” and the “mRNA expression of Col3a1 (qPCR)” value is given as “significantly decreased”. Also, the “fibrotic area of lung (Masson-trichrome staining)” value in test [5] is on record as “significantly decreased”. The “hydroxyproline amount of liver tissue” value with NASH model (any dose (1, 3, and 10 mg/kg) twice per day, versus no administration) is “decreases in hydroxyproline amount were observed”. Moreover, the “mRNA expression of fibrosis markers (Acta2, Col1a1, Timp-1) (qPCR)” value with NASH model (any of 1, 3, and 10 mg/kg twice per day) is given as “uniformly decreased fibrosis markers”. Besides, the “fibrotic area in tissue specimens (Sirius red)” value with NASH model (any of 1, 3, and 10 mg/kg twice per day, versus non-administration group) was “reduced the fibrotic area”. The “activation of TGFβ (luciferase activity)” value in test [6] (200 nM) is “almost completely inhibited”. Also, the “activation of TGFβ (luciferase activity)” value in [6] (concentration range of 2 to 200 nM, coculture 18 hours) is “suppressed activation of TGFβ in a concentration-dependent manner”. Moreover, in [7] (setting [8]), the “mRNA expression of Acta2 (qPCR)” value was “tends to be decreased” and the “mRNA expression of Col1a1 (qPCR)” value is on record as “tends to be decreased”. In addition, the “amount of hydroxyproline in liver tissue” value in test [7] (1 mg/kg twice per day) is reported as “showed an effect”. The “amount of hydroxyproline in liver tissue” value in test [7] (1 or 10 mg/kg twice per day) is “decreased the amount of hydroxyproline”. Further, in test [7] (both 1 mg/kg and 10 mg/kg twice per day, versus non-administration group, decrease followed the dose), the “Sirius red-stained area of liver tissue” value is “decreased”.
As to `COCCN(CCCCc1ccc2c(n1)NCCC2)CC[C@H](Nc1ncnc2ccccc12)C(=O)O` [PLN-74809], the “efficacy in early Phase 2a of a clinical trial” value in the test on interstitial pneumonia is on record as “proven efficacy”.
